From patent EP0688218B1, “INTERLEUKIN-1 INHIBITOR” (OTSUKA PHARMACEUTICAL CO., LTD., priority 1993, dated 1994)

What was measured:
IL-1β = assay: Inhibition of LPS-stimulated IL-1β release in heparinized peripheral blood culture (ELISA); format: cell-based, human; details: Dose 3 x 10^-5 g/ml; 10% heparinized peripheral blood from healthy volunteer; LPS 3.3 µg/ml; 18 - 24 hours
Procedure: (§1) Method: A 10% heparinized prepheral blood from healthy volunteer, a test compound and lipopolysaccharide (LPS, 3.3 µg/ml) were suspended in RPMI-1640 medium supplemented with penicillin 100 units/ml and streptomycin […], and the mixture was incubated in a 5% CO2 atmosphere at 37°C for 18 - 24 hours. The supernatant of the culture was collected by centrifugation.
(§2) The IL-1α and IL-1β isolated from cells by stimulation with LPS were measured by enzyme-linked immunoassay (ELISA). That is, 96-well ELISA plate was coated with a mouse monoclonal antibody against human IL - 1α or human IL-1β, followed by blocking treatment, and thereto was added a test sample and it was subjected to reaction. […] After removing the unbound POD-conjugated antibody by washing, a substrate solution (containing ortho-phenylenediamine and hydrogen peroxide) was added and subjected to reaction, and thereafter, the absorbance at 492 nm was measured, and thereby the amounts of IL-1α and IL-1β were measured based on each standard curve. The ratio (%) of inhibition of IL-1 release was calculated by the following equation: IL-1 release inhibitory ratio (%) = 100 x (1-T/C) [formula] wherein T means the amount of IL-1 in the supernatant of culture incorporated with the test compound, and C means the amount of IL-1 in the supernatant of culture added only with the solvent.

IL-1α = assay: Inhibition of LPS-stimulated IL-1α release in heparinized peripheral blood culture (ELISA); format: cell-based, human; details: Dose 3 x 10^-5 g/ml; 10% heparinized peripheral blood from healthy volunteer; LPS 3.3 µg/ml; 18 - 24 hours
Procedure: as §1, §2

| SMILES | IL-1β release inhibitory ratio (IL-1β) [%] | IL-1α release inhibitory ratio (IL-1α) [%] |
| --- | --- | --- |
| Cc1c(F)c(N2CCNC(C)C2)cc2c1c(=O)c(C(=O)O)cn2C1CC1 (stereo not shown) [Test compound 1, 7-(3-Methyl-1-piperazinyl)-1-cyclopropyl-6-fluoro-5-methyl-1,4-dihydro-4-oxoquinoline-3-carboxylic acid] | 96 | 93 |
| CC1CCc2c(N3CCC(O)CC3)c(F)cc3c(=O)c(C(=O)O)cn1c23 (stereo not shown) [Test compound 2, 9-Fluoro-8-(4-hydroxy-1-piperidinyl)-5-methyl-6,7-dihydro-1-oxo-1H,5H-benzo[ji]quinolidine-2-carboxylic acid] | 78 | 82 |
